Laboratory results as given in patent US11185076B2 (priority 2017, dated 2021).
Read-outs that look alike come from different tables or passages of the source.

Assays:
[1] = system: tomato yellow leaf curl disease (TYLCV); experiment: Control test on tomato yellow leaf curl disease (TYLCV) (soil drench test); type: in vivo, tomato yellow leaf curl virus
Experimental: Granules containing 3% of tolprocarb (a) (trade name; Sanblas (registered trademark) granules (manufactured by Mitsui Chemical Agro Co., Ltd.)), granules containing 5% of pyroquilon (b) (trade name; Coratop (registered trademark) granules (manufactured by Syngenta Japan Ltd.)) and granules containing 1% of dinotefran (trade name; Starkle (registered trademark) granules (manufactured by Mitsui Chemicals Agro Co., Ltd.)) were respectively treated or were treated in combination to plant foot of tomato in a predetermined amount. Seven days after chemical agent treatment, the plants were inoculated by sucking of one adult of TYLCV-carrying tobacco whitefly biotype Q per plant for 3 days. Thereafter, the inoculated plants were put in the greenhouse to promote infection, and the control effect was examined after the infection. The infection was examined by the degree of infection, and the disease severity index was calculated based on the degree of infection. The control value was calculated from the disease severity index.
1: observation of initial infection (delayed infection)
2: observation of infection Severity index=((the number of plants of infection index 0×0)+(the number of plants of infection index 1×1)+(the number of plants of infection index 2×2)/(the number of plants examined×2))×100
(§1) The synergistic effect was calculated from the following Colby's equation. Synergistic effect (expected value)=(control value of compound A+control value of compound B)−(control value of compound A×control value of compound B)/100
(§2) When the control value exceeded the expected value in the case of mixing the compounds and applying the mixed product, it was determined that there was a synergistic effect.

Rice Streak Virus (RSV) = experiment: Control test on rice streak virus (RSV) (field trial of nursery box application); type: in vivo, rice stripe virus; details: rice (cultivar: Hinohikari)
Experimental: Rice seedlings (cultivar: Hinohikari) were grown in a greenhouse according to an ordinary procedure and transplanted to an open paddy field. Granules containing 4% of tolprocarb (a) and granules containing 6% of dinotefuran (insecticidal ingredient) formulated according to Formulation Example 2 were respectively treated or were treated in combination in 50 g per box in a nursery box on the day of transplantation. 35 days after transplantation, larvae of RSV-carrying small brown planthopper were released for one week to inoculate rice plants by sucking. At 79 days and 99 days after transplantation, the presence or absence of the unshooting of head was examined.

[2] = system: Chinese cabbage soft rot bacteria (Erwinia carotovora subsp. carotovora); experiment: Control test on Chinese cabbage soft rot (soil incorporation test); type: in vivo
Source text: Granules containing 3% of tolprocarb (a) (trade name; Sanblas (registered trademark) granules (manufactured by Mitsui Chemical Agro Co., Ltd.)), granules containing 5% of pyroquilon (b) (trade name; Coratop (registered trademark) granules (manufactured by Mitsui Chemical Agro Co., Ltd.)), granules containing 1.5% of simeconazole (fungicidal component) (trade name; Mongalite (registered trademark) granules (manufactured by Mitsui Chemical Agro Co., Ltd.)) and flowable containing 20% of penthiopyrad (fungicidal component) were respectively incorporated or were incorporated in combination into a pot soil in a predetermined amount. Then, the Chinese cabbage was planted in the pot soil. At 14 days after chemical agent treatment, the Chinese cabbage soft rot was inoculated. […] Thereafter, the inoculated plantes were put in a 25° C. greenhouse to promote infection for 2 days, and the control effect was examined. The infection was examined by the degree of infection, and the disease severity index was calculated based on the degree of infection. The control value was calculated from the disease severity index.
Severity index=((the number of leaves of infection index 0×0)+(the number of leaves of infection index 1×1)+(the number of leaves of infection index 2×2)+(the number of leaves of infection index 3×3)/(the number of leaves examined×3)×100
as §1, §2

[3] = system: cucumber mosaic virus (CMV); details: for Control value / Disease Severity index / Number of CMV Infected Leaves: Acute wilt / Number of CMV Infected Leaves: Mosaic / Number of CMV Infected Leaves: No Infection: drench 1 day before inoculation; for Number of CMV Infected Leaves: Acute wilt / Number of CMV Infected Leaves: Mosaic / Number of CMV Infected Leaves: No Infection: 3 checked
[4] = system: cucumber mosaic virus (CMV)
[5] = cucumber (cultivar: Sagami-hanjiro)
[6] = 5 plants, drench 3 days before inoculation, g ai/10a: (a) 90, (b) 150, dinotefuran 120, thiamethoxam 60, (h) 250, mixtures 90 + 120 and 150 + 60
[7] = drench 3 days before inoculation, g ai/10a: (a) 90, (b) 150, dinotefuran 120, thiamethoxam 60, (h) 250, mixtures 90 + 120 and 150 + 60

Cc1ccc(C(=O)NC[C@@H](NC(=O)OCC(F)(F)F)C(C)C)cc1 [Tolprocarb (a), tolprocarb]
phytotoxicity ([1]; tomato (cultivar: Sekai-ichi)): not observed | control effect on tomato yellow leaf curl disease (TYLCV) (in words) ([1]; treatment on 7 day before inoculation): excellent control effect | phytotoxicity (Rice Streak Virus (RSV)): not observed | phytotoxicity ([2]; Chinese cabbage plant (cultivar: Muso)): not observed | control effect on the Chinese cabbage soft rot (in words) ([2]; whole soil incorporation at the time of planting): excellent control effect | Control value ([3]; 22.5 g ai/10a): 66.7 | Disease Severity index ([3]; 22.5 g ai/10a): 33.3 | Number of CMV Infected Leaves: Acute wilt ([3]; 22.5 g ai/10a): 1 | Number of CMV Infected Leaves: Mosaic ([3]; 22.5 g ai/10a): 0 | Number of CMV Infected Leaves: No Infection ([3]; 22.5 g ai/10a): 2 | Control value ([3]; 45 g ai/10a): 16.7 | Disease Severity index ([3]; 45 g ai/10a): 83.3 | Number of CMV Infected Leaves: Acute wilt ([3]; 45 g ai/10a): 2 | Number of CMV Infected Leaves: Mosaic ([3]; 45 g ai/10a): 1 | Number of CMV Infected Leaves: No Infection ([3]; 45 g ai/10a): 0 | Control value ([3]; 90 g ai/10a): 50.0 | Disease Severity index ([3]; 90 g ai/10a): 50.0 | Number of CMV Infected Leaves: Acute wilt ([3]; 90 g ai/10a): 1 | Number of CMV Infected Leaves: Mosaic ([3]; 90 g ai/10a): 1 | Number of CMV Infected Leaves: No Infection ([3]; 90 g ai/10a): 1 | phytotoxicity [3, 5]: not observed | control effect on cucumber mosaic virus (CMV) (in words) ([3]; treatment on 1 day before inoculation): excellent control effect | Number of CMV Infected Plants: Acute wilt [4, 6]: 0 | Number of CMV Infected Plants: Mosaic [4, 6]: 3 | Number of CMV Infected Plants: No Infection [4, 6]: 2 | phytotoxicity [4, 5]: not observed | Control value [4, 7]: 66.7 | Disease Severity index [4, 7]: 30.0 | control effect on cucumber mosaic virus (CMV) (in words) ([4]; treatment on 3 day before inoculation): excellent control effect
